One assay relates to BxPC-3 cells. Description: MTS cell proliferation assay, pancreatic cancer cells. The conditions noted are these: read-out: inhibition of pancreatic cancer cell lines IC50, BxPC-3. A general note: Tetrazolium assays rely on reduction of a dye to a coloured formazan, in cell work by metabolically active cells.
The test system of the next assay is HupT3 cells. Described as above. Particulars: read-out: inhibition of pancreatic cancer cell lines IC50, Hup T3.
The subject of the next assay is MiaPaca-2 cells. The description is as above. Particulars: read-out: inhibition of pancreatic cancer cell lines IC50, Mia Paca-2.
Assay [1] relates to Panc04.03 cells. The assay is described as above. Particulars: read-out: inhibition of pancreatic cancer cell lines IC50, Panc 04.03.
Another assay concerns SU86.86 cells. The description is as above. The conditions noted are these: read-out: inhibition of pancreatic cancer cell lines IC50, SU 86.86.
For a further assay, the target named is HDAC1 (Homo sapiens, UniProt Q13547). Description: HDAC isoform inhibition assay.
HDAC1, sequence (Q13547 whole entry, canonical isoform): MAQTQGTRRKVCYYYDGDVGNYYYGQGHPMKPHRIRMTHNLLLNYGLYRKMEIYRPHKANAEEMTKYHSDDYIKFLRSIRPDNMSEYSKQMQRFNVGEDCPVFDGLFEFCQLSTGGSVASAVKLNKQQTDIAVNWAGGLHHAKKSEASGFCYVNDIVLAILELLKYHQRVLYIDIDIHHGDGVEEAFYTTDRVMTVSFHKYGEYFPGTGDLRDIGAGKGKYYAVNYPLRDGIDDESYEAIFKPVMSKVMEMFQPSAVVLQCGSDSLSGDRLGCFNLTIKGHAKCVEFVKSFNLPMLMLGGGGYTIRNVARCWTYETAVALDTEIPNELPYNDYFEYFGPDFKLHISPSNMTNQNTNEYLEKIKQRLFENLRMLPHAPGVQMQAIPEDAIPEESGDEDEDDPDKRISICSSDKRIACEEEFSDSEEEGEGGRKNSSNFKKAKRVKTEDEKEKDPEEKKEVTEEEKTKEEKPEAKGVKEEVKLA
For the next assay, the target named is T1, HDAC6 (Homo sapiens, UniProt Q9UBN7).
T1 sequence (Q9UBN7 1-1215): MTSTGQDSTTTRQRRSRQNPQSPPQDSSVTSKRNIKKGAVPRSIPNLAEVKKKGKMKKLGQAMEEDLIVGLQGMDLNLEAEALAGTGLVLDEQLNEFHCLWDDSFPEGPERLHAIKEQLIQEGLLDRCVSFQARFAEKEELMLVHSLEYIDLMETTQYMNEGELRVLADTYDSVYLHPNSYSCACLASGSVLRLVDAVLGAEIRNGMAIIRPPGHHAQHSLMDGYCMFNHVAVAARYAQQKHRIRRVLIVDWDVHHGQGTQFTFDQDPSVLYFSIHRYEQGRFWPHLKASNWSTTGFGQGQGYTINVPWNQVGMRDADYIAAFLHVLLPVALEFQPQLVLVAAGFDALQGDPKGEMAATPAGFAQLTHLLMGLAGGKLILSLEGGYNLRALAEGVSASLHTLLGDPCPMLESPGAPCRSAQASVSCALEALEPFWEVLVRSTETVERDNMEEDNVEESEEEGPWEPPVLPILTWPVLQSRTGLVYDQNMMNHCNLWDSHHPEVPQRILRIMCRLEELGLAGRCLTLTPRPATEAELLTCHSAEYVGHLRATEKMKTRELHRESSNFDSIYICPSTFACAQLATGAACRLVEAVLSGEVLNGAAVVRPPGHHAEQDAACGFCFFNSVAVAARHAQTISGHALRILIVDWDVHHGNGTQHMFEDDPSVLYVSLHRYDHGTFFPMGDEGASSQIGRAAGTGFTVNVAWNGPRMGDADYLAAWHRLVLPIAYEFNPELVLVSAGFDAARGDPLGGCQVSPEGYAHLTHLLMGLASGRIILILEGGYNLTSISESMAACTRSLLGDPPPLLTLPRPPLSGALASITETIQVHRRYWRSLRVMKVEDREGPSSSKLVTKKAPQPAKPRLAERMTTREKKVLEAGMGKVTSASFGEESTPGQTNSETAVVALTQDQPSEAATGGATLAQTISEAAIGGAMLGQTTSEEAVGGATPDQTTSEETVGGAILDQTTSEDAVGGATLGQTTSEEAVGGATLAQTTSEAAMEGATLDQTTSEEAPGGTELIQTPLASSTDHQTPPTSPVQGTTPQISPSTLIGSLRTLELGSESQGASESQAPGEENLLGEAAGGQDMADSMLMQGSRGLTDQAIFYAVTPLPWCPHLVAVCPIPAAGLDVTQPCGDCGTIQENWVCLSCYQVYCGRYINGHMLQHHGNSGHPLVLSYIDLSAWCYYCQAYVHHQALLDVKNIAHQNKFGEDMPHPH
Description: HDAC isoform inhibition assay.

The target of another assay is HDAC3 (Homo sapiens, UniProt O15379). Description: HDAC isoform inhibition assay.
HDAC3, sequence (O15379 whole entry, canonical isoform): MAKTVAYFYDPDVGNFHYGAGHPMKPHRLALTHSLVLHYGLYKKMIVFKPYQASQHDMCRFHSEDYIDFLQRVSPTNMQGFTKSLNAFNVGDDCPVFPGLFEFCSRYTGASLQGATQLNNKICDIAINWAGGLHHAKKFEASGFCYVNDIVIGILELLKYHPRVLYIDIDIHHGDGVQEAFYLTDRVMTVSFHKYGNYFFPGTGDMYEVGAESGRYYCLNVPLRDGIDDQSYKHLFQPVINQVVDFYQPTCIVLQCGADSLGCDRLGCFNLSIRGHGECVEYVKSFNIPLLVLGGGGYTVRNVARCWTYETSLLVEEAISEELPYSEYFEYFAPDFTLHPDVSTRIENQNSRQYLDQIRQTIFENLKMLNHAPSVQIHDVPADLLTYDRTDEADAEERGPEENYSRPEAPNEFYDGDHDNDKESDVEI
HDAC3, sequence (Q9Y618 395-489 partner limits assumed): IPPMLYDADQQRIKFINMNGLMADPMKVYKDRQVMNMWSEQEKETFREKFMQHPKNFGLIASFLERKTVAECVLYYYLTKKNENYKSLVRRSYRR
Assay [2] relates to Panc04.03 cells. Description: Cell cycle analysis by flow cytometry. In kind it is cell-based. The conditions noted are these: 5 µM for 24 h, vs vehicle (DMSO). Background: A flow cytometer gives signals particle by particle.
The test system of another assay is p21 in BXPC-3 cell line. Description: Immunoblot of CDK inhibitor p21 expression. The format is cell-based. Particulars: 5 µM for 18 h, vs vehicle (DMSO).
Assay [3] deals with SU86.86 and Panc04.03 xenografts. Description: Xenograft tumor model, SU86.86 and Panc04.03, immunoblot of tumor proteins. In kind it is in vivo, mouse. (In general: In western blotting, separated proteins are transferred to a membrane and probed.)
For a further assay, the target named is HDAC2 (Homo sapiens, UniProt Q92769). Description: HDAC isoform inhibition assay.
HDAC2, sequence (Q92769 whole entry, canonical isoform): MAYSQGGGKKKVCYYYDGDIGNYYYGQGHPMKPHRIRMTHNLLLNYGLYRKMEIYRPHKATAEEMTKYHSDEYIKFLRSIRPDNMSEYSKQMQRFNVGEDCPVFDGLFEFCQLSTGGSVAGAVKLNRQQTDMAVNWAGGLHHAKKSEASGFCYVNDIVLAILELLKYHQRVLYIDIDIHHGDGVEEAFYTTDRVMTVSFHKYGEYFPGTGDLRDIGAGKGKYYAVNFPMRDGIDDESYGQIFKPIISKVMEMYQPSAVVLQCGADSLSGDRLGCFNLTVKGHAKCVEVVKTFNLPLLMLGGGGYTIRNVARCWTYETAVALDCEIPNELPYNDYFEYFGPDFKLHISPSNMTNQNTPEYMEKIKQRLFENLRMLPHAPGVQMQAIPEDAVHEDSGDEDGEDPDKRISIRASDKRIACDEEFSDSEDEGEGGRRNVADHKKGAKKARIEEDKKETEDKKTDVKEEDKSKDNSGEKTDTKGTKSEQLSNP
The next assay concerns the target T2, HDAC8 (Homo sapiens, UniProt Q9BY41).
T2 sequence (Q9BY41 1-377): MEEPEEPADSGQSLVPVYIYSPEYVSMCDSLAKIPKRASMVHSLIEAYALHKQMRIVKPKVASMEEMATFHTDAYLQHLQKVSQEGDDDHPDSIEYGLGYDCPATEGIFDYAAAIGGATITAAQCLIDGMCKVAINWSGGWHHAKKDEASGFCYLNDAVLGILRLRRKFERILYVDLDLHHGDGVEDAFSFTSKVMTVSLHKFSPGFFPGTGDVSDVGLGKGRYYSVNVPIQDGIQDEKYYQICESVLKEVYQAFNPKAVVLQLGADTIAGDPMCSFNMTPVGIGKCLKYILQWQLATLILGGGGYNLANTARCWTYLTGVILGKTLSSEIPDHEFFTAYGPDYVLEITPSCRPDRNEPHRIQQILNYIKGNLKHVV
Description: HDAC isoform inhibition assay.

A further assay addresses T3, HDAC10 (Homo sapiens, UniProt Q969S8).
T3 sequence (Q969S8 1-669): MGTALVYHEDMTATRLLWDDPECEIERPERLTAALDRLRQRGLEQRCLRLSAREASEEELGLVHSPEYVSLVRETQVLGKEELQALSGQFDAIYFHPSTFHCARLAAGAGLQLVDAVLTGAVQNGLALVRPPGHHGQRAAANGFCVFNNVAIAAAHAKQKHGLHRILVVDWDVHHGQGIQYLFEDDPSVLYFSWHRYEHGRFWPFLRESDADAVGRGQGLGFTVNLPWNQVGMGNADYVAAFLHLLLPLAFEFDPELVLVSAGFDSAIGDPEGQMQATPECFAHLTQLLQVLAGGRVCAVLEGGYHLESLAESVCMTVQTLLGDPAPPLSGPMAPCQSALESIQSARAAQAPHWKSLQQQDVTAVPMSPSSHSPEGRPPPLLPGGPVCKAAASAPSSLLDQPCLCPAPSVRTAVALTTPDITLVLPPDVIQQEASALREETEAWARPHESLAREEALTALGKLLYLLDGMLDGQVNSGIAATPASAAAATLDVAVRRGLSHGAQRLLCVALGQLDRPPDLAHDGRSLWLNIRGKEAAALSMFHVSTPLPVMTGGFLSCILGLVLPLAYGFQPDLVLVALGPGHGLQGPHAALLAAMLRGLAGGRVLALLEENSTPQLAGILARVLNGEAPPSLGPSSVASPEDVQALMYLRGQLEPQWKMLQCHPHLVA
Description: HDAC isoform inhibition assay.

Read-outs that look alike come from different tables or passages of the source. Bounds are passed on as bounds.

As usually defined, the IC50 is the concentration that gives 50% inhibition. With `O=C(CCCCCCC(=O)Nc1cccc(-c2cn(-c3ccc(CO)cc3)nn2)c1)NO` [4f, Octanedioic acid hydroxyamide {3-[1-(4-hydroxymethylphenyl)-1H-[1,2,3]triazol-4-yl]phenyl}amide], the IC50 in the assay with BxPC-3 cells (Homo sapiens, BXPC-3, 72 h) is 1000 nM; with HupT3 cells (Homo sapiens, HuP-T3, 72 h), 200 nM; with MiaPaca-2 cells (Homo sapiens, MIA PaCa-2, 72 h), 200 nM; in the assay with Panc04.03 cells [1] (Homo sapiens, Panc 04.03, 72 h) it was 1000 nM; with SU86.86 cells (Homo sapiens, SU.86.86, 72 h), 1000 nM; at HDAC1, 3.04 nM. The same compound yielded a half-inhibitory concentration (IC50) on HDAC6 of 7.6 nM.

`COc1ccc(-n2cc(-c3cccc(NC(=O)CCCCCCC(=O)NO)c3)nn2)cc1F` [4h, Octanedioic acid {3-[1-(3-fluoro-4-methoxyphenyl)-1H-[1,2,3]-triazol-4-yl]phenyl}amide hydroxyamide]: the IC50 is 200 nM in the assay on BxPC-3 cells (Homo sapiens, BXPC-3, 72 h); 50 nM in the assay with HupT3 cells (Homo sapiens, HuP-T3, 72 h); 100 nM in the assay on MiaPaca-2 cells (Homo sapiens, MIA PaCa-2, 72 h); 100 nM in the assay on Panc04.03 cells [1] (Homo sapiens, Panc 04.03, 72 h); 1000 nM with SU86.86 cells (Homo sapiens, SU.86.86, 72 h); 5.06 nM at HDAC1. In addition, the values for the IC50 against HDAC3 and on HDAC6 were 3.39 nM and 3.85 nM, respectively.

Regarding `O=C(CCCCCCC(=O)Nc1ccccc1)NO` [SAHA (1a), suberoylanilide hydroxamic acid, reference compound], in the assay with HupT3 cells (Homo sapiens, HuP-T3, 72 h), the IC50 was 800 nM.

For `O=C(CCCCCCC(=O)Nc1cccc(-c2cn(-c3ccccc3)nn2)c1)NO` [compound 4a, octanedioic acid hydroxyamide[3-(1-phenyl-1H-[1,2,3]triazol-4-yl)phenyl]amide], the “effect on cell cycle profile” value in the assay with Panc04.03 cells [2] was “loss of S-phase cells and an increase in the percentage of cells in G1”. Besides, the “expression of p21 protein” value in the assay on p21 in BXPC-3 cell line is recorded as “increased expression of p21”. The “expression of CDK inhibitors p15, p16, p21, p27 and p57 in xenograft tumors” value in assay [3] (10 and 100 mg/kg i.p. every 12 h for 48 h, athymic nude mice) is listed as “re-activated”. For the same compound, the “pancreatic cancer cell growth in vivo” value in assay [3] (pancreatic tumor cell line xenografts, preliminary in vivo evaluation) was “suppresses pancreatic cancer cell growth in vivo”. For the same compound, the IC50 with Panc04.03 cells [1] (Homo sapiens, Panc 04.03, 72 h) is under 500 nM.

For `O=C(CCCCCCC(=O)Nc1cccc(-c2cn(C3CCCCC3)nn2)c1)NO` [compound 4j, Octanedioic acid [3-(1-cyclohexyl-1H-[1,2,3]triazol-4-yl)phenyl]amide hydroxyamide], the “fold more potent than compound 4a, HDAC1” value at HDAC1 (ratio of IC50 vs 4a) is 2- to 3 fold. In addition, the “fold more potent than compound 4a, HDAC2” value on HDAC2 is 2- to 3 fold. Moreover, at HDAC3, the “fold more potent than compound 4a, HDAC3” value is 2- to 3 fold. Also, at HDAC8 (ratio of IC50 vs 4a), the “fold more potent than compound 4a, HDAC8” value is recorded as 2- to 3 fold. Moreover, the “fold more potent than compound 4a, HDAC10” value at HDAC10 (ratio of IC50 vs 4a) was 2- to 3 fold. The “fold more potent than compound 4a, HDAC6” value on HDAC6 (ratio of IC50 vs 4a) is on record as 2- to 3 fold.

Turning to “Octanedioic acid (2-aminophenyl)amide [3-(1-phenyl-1H-[1,2,3] triazol-4-yl)phenyl]amide [12a]”, the IC50 in the assay with BxPC-3 cells (72 h post treatment) was over 50000 nM; in the assay with HupT3 cells (72 h post treatment) it was over 50000 nM; in the assay with MiaPaca-2 cells (72 h post treatment), over 50000 nM; in the assay with Panc04.03 cells [1] (72 h post treatment) it was over 50000 nM; in the assay on SU86.86 cells (72 h post treatment), 32000 nM; at HDAC3 (read-out: IC50 HDAC3), 122 ± 9 nM. Besides, the IC50 was over 30000 nM at HDAC8 (read-out: IC50 HDAC8, tested at Nanosyn, 17 hours at 25 °C); over 30000 nM at HDAC10 (read-out: IC50 HDAC10, tested at Nanosyn, 17 hours at 25 °C); over 30000 nM at HDAC6 (read-out: IC50 HDAC6, tested at Nanosyn, 17 hours at 25 °C).

Source of the values: PMC2919064 (Journal of medicinal chemistry, 2010).
